Results reported in PubChem BioAssay AID248 (DTP/NCI, 2004).
“And” between values parts separate entries of the source, which are not always exact repeats. Identical values can stand only once. Inconclusive results and toxic doses are left out.

Test system: L1210 leukemia ip in BDF1 mice, survival T/C
Assay: NCI In Vivo Anticancer Drug Screen. Data for tumor model L1210 Leukemia (intraperitoneal) in B6D2F1 (BDF1) mice
Conditions: endpoint: mean survival time, higher = longer survival
Outline: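 In this screen, tumor-bearing mice given compound are compared to those given vehicle, and their survival values are reported as a treated-to-control quotient.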

[1] = dose: 100.0 mg/kg/injection, schedule: Q01DX009 (ip), vehicle: saline with Tween-80
[2] = dose: 100.0 mg/kg/injection, schedule: Q01DX001 (ip), vehicle: other
[3] = dose: 200.0 mg/kg/injection, schedule: Q01DX001 (ip), vehicle: other
[4] = dose: 400.0 mg/kg/injection, schedule: Q01DX001 (ip), vehicle: other

CCCCCCC(C)C1C(=O)NC(=S)NC1=O (stereo not drawn)
T/C (dose: 75.0 mg/kg/injection, schedule: Q01DX001 (ip), vehicle: carboxymethylcellulose (CMC)): 93 % of control
T/C (dose: 150.0 mg/kg/injection, schedule: Q01DX001 (ip), vehicle: carboxymethylcellulose (CMC)): 91 % of control
T/C (dose: 300.0 mg/kg/injection, schedule: Q01DX001 (ip), vehicle: carboxymethylcellulose (CMC)): 94 % of control

CSc1nc(N)c2n[nH]nc2n1
T/C (dose: 100.0 mg/kg/injection, schedule: Q04DX003 (ip), vehicle: saline with Tween-80): 103 % of control
T/C (dose: 200.0 mg/kg/injection, schedule: Q04DX003 (ip), vehicle: saline with Tween-80): 95 % of control
T/C (dose: 400.0 mg/kg/injection, schedule: Q04DX003 (ip), vehicle: saline with Tween-80): 95 % of control

Cc1nc(N)c2nonc2n1
T/C [1]: 89 % of control

O=C(/C=C/C(=O)n1ccc2ccccc21)n1ccc2ccccc21
T/C (dose: 50.0 mg/kg/injection, schedule: Q01DX001 (ip), vehicle: saline): 95 % of control
T/C (dose: 100.0 mg/kg/injection, schedule: Q01DX001 (ip), vehicle: saline): 95 % of control
T/C (dose: 200.0 mg/kg/injection, schedule: Q01DX001 (ip), vehicle: saline): 101 % of control
T/C (dose: 400.0 mg/kg/injection, schedule: Q01DX001 (ip), vehicle: saline): 95 % of control

CSCCC(NCc1cc(=O)[nH]c(=O)[nH]1)C(=O)O (stereo not drawn)
T/C (dose: 100.0 mg/kg/injection, schedule: Q04DX003 (ip), vehicle: saline): 97 % of control
T/C (dose: 200.0 mg/kg/injection, schedule: Q04DX003 (ip), vehicle: saline): 101 % of control
T/C (dose: 400.0 mg/kg/injection, schedule: Q04DX003 (ip), vehicle: saline): 95 % of control

CCOC(=O)C(O)(C#CC(C)C)C1CCCCC1 (stereo not drawn)
T/C [2]: 94 % of control
T/C [3]: 89 % of control
T/C [4]: 94 % of control

C=CCc1ccc(OC(=O)Nc2cccc3ccccc23)c(OC)c1
T/C (dose: 100.0 mg/kg/injection, schedule: Q04DX002 (ip), vehicle: Klucel (hydroxypropylcellulose) (HPC)): 96 % of control
T/C (dose: 200.0 mg/kg/injection, schedule: Q04DX002 (ip), vehicle: Klucel (hydroxypropylcellulose) (HPC)): 124 % of control
T/C (dose: 400.0 mg/kg/injection, schedule: Q04DX002 (ip), vehicle: Klucel (hydroxypropylcellulose) (HPC)): 93 % of control

Cc1nnc(NC(=O)C(Cl)Cl)s1
T/C [2]: 96 % of control
T/C (dose: 100.0 mg/kg/injection, schedule: Q01DX009 (ip), vehicle: Klucel (hydroxypropylcellulose) (HPC)): 96 % of control
T/C (dose: 100.0 mg/kg/injection, schedule: Q04DX003 (ip), vehicle: other): 95 % of control
T/C [3]: 98 % of control
T/C (dose: 200.0 mg/kg/injection, schedule: Q01DX009 (ip), vehicle: Klucel (hydroxypropylcellulose) (HPC)): 90 % of control
T/C (dose: 200.0 mg/kg/injection, schedule: Q04DX003 (ip), vehicle: other): 96 % of control
T/C [4]: 101 % of control
T/C (dose: 400.0 mg/kg/injection, schedule: Q01DX009 (ip), vehicle: Klucel (hydroxypropylcellulose) (HPC)): 93 % of control
T/C (dose: 400.0 mg/kg/injection, schedule: Q04DX003 (ip), vehicle: other): 87 % of control

COc1ccc(OC)c(NC(=O)NNC(=O)CNC(=O)Nc2ccc(Cl)c(Cl)c2)c1
T/C (dose: 12.5 mg/kg/injection, schedule: Q01DX009 (ip), vehicle: saline with Tween-80): 95 % of control
T/C (dose: 25.0 mg/kg/injection, schedule: Q01DX009 (ip), vehicle: saline with Tween-80): 95 % of control
T/C (dose: 50.0 mg/kg/injection, schedule: Q01DX009 (ip), vehicle: saline with Tween-80): 91 % of control and 92 % of control
T/C [1]: 88 % of control
T/C (dose: 200.0 mg/kg/injection, schedule: Q01DX009 (ip), vehicle: saline with Tween-80): 98 % of control

CCc1cccc(OC/C=C(\C)CCC2OC2(C)CC)c1 (stereo not drawn)
T/C (dose: 100.0 mg/kg/injection, schedule: Q04DX002 (ip), vehicle: saline with Tween-80): 100 % of control
T/C (dose: 200.0 mg/kg/injection, schedule: Q04DX002 (ip), vehicle: saline with Tween-80): 100 % of control
T/C (dose: 400.0 mg/kg/injection, schedule: Q04DX002 (ip), vehicle: saline with Tween-80): 94 % of control

COC1NC(=O)NC(=O)C1=[N+]=[N-] (stereo not drawn)
T/C (dose: 5.0 mg/kg/injection, schedule: Q04DX003 (ip), vehicle: saline with Tween-80): 115 % of control
T/C (dose: 6.6 mg/kg/injection, schedule: Q01DX009 (ip), vehicle: saline with Tween-80): 150 % of control
T/C (dose: 10.0 mg/kg/injection, schedule: Q01DX009 (ip), vehicle: saline with Tween-80): 170 % of control
T/C (dose: 10.0 mg/kg/injection, schedule: Q04DX003 (ip), vehicle: saline with Tween-80): 118 % of control
T/C (dose: 15.0 mg/kg/injection, schedule: Q01DX009 (ip), vehicle: saline with Tween-80): 163 % of control

Nc1ccc(N=Nc2cc(Cl)ccc2Cl)c(N)n1
T/C (dose: 50.0 mg/kg/injection, schedule: Q01DX001 (ip), vehicle: other): 103 % of control
T/C [2]: 86 % of control
T/C [3]: 92 % of control
T/C [4]: 92 % of control

CSc1nc(C(=O)O)c(C)c(=O)[nH]1
T/C (dose: 100.0 mg/kg/injection, schedule: Q01DX Z (ip), vehicle: saline): 109 % of control
T/C (dose: 200.0 mg/kg/injection, schedule: Q01DX Z (ip), vehicle: saline): 100 % of control
